# Experimental data from ChEMBL document CHEMBL5036381, “Novel Plasma Kallikrein Inhibitors for Treating Hereditary Angioedema, Diabetic Macular Edema, and Diabetic Retinopathy” (ACS Med Chem Lett, 2022).
# Biological target: Plasma kallikrein (Homo sapiens, UniProt P03952)
# Assay: Inhibition of human plasma kallikrein using fluorogenic substrate measured by microplate reader analysis
# Format: cell-free
# Sequence of Plasma kallikrein (P03952 20-390 limits assumed): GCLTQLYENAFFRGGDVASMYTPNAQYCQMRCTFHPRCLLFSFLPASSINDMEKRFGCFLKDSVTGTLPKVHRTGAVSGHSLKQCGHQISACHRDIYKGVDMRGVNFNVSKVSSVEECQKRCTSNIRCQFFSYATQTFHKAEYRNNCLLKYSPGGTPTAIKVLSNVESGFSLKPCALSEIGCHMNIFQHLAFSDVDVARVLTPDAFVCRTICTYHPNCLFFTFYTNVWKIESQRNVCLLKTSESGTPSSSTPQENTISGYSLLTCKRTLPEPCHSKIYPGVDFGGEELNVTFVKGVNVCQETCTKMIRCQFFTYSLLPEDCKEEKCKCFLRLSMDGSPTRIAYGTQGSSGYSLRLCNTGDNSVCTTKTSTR
# Sequence of Plasma kallikrein (P03952 391-638 limits assumed): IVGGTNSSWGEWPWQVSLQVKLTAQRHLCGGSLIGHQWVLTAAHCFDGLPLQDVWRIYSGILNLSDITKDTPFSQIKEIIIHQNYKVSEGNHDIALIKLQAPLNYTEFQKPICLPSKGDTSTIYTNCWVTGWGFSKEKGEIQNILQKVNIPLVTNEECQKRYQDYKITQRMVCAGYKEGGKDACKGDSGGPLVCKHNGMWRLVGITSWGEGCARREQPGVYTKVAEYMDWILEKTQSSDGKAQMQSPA
row,Compound,IC50 [nM]
1,COc1c(N2C[C@H]3C[C@H]3C2=O)ncc(C(C)n2cc(NC(=O)c3cncc(-c4c(C(F)F)ccc(Cl)c4F)n3)cn2)c1C (some centres not stated),0.3
2,Cc1c([C@H](C)n2cc(NC(=O)c3cncc(-c4c(C(F)F)ccc(Cl)c4F)n3)cn2)cnc(N2C[C@H]3C[C@H]3C2=O)c1F,0.3
